We go through 5 molecules from patent US20250369031A1, “METHODS OF DETERMINING CERULOPLASMIN ACTIVITY AND APPLICATIONS THEREOF” (ACADEMIA SINICA, priority 2022, published 2025).

Assay type in all cases: biochemical
For test [1], the target named is T1, ceruloplasmin (Homo sapiens, UniProt P00450).
T1 sequence (P00450 20-1065): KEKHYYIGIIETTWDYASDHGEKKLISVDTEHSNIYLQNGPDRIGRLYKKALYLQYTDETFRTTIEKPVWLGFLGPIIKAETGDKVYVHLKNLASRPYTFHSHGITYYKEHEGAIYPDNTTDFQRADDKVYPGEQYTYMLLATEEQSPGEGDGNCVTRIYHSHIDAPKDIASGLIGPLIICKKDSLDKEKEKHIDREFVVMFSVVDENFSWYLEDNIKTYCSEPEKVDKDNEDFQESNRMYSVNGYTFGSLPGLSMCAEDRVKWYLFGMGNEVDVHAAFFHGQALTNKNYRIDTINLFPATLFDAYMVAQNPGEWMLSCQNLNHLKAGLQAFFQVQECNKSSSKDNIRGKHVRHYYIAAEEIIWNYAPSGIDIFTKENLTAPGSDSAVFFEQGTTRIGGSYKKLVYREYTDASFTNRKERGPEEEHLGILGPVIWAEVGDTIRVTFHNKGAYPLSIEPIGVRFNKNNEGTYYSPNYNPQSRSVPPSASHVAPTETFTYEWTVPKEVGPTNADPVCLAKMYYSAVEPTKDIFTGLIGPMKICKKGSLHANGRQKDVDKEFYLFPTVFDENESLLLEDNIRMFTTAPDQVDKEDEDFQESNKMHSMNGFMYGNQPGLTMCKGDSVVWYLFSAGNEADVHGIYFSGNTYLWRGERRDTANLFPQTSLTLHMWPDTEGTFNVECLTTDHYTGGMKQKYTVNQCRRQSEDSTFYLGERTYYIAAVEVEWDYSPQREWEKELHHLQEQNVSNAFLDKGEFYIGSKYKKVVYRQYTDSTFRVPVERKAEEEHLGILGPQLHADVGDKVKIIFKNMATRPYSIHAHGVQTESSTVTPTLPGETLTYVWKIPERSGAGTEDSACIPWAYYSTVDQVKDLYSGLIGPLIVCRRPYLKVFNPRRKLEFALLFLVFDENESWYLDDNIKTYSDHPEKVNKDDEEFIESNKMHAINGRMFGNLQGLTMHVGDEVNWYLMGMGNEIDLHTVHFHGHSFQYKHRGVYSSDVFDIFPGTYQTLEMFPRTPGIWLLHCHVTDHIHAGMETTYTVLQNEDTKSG
The test can be described thus: Colorimetric methods for ceruloplasmin oxidative activity. Also noted: Ceruloplasmin is made in the liver and then secreted into the blood; from tissue; host or cells: serum / plasma (normal adult, newborn; Cp-depleted serum by 100 kDa filtration as comparison). Particulars: serum volume small than 10 μL. The text has this: FIGS. 8A and 8B show the limitations of detection by current methods known in the art. […] The specific activity units of Cp are not reliable in lower volume of serum.
The limitations of current methods and available commercial kits were described. In current method, the colorimetric methods using p-phenylenediamine (PPD) and o-dianisidine dihydrochloride (ODD) as substrates are used for quantification of ceruloplasmin oxidative activity. […] The activity of ceruloplasmin were positively correlated to absorbance. However, the correlation of absorbance and serum volume small than 10 μL was poor (FIG. 8).

For test [2], the system named is serum oxidases. The test can be described thus: Library screening with serum, ESI-MS monitoring of oxidized products. Particulars: acetate buffer pH 5.0, 37° C., 1 h. The procedure:
The chemical library dissolved in DMSO individually to give stock concentrations of 1 mg/mL. Each chemical was placed in individual well and incubated with serum sample in acetate buffer (0.1M, pH 5.0) at 37° C. for 1 h. Additional DMSO was provided to inhibit oxidase activity. High-resolution ESI mass spectra (Bruker Daltonics spectrometer) was utilized to monitor the oxidized products.
To screen for suitable compounds as Cp substrates for MS analysis, an approach of combinatorial library screening in primary MS analysis was used to find out oxidized products and their relationship with initial substrates. Briefly, a platform for rapidly and conveniently screening various small molecules was established. In the chemical library collection as obtained, including natural products, synthetic compounds and heterocyclic molecules, each member was parallelly incubated with a certain small amount of serum for a desired reaction time. After quenching each enzyme reaction, analysis of the reaction products with ESI-MS was performed. Hits with reliable, major, and distinct oxidized product peaks in ESI-MS analysis were selected for further studies (FIG. 1).

Test [3] deals with T1, ceruloplasmin. The test can be described thus: Cp activity in newborn plasma, LCMS. Also noted: Ceruloplasmin is made in the liver and then secreted into the blood; from tissue; host or cells: serum / plasma (normal adult, newborn; Cp-depleted serum by 100 kDa filtration as comparison). Particulars: without dilution. An excerpt:
The DMSO quenched mixture were detected by LCMS without dilution.

Test [4] has as its target T1, ceruloplasmin. The test can be described thus: Ceruloplasmin spike-in experiment in normal serum, LC-MS/MS. The procedure: To understand the relation between ceruloplasmin and serum oxidases and the reactivity of modified substrates and ceruloplasmin, spike-in experiment was performed. […] The assay was incubated at 37° C. for 30 mins, and quenching the reaction by DMSO. The final products were analyzed by LC-MS/MS.

Test [5] concerns serum oxidases. The test can be described thus: LC-MS/MS based serum oxidase activity assay.
Description: Samples were detected by LC-ESI-MS on a Velos Pro dual-pressure linear ion trap mass spectrometer (Thermo Fisher Scientific, San Jose, CA) equipped with an Ultimate 3000 RSLC system from Dionex (Dionex Corporation, Sunnyvale, CA), using a Xbridge C18 (HPLC column 1 mm×15 cm i.d., 3.5 μm particle size, 130 Å pore size). Briefly, the gradient employed was 50% buffer B at 5 min to 98% buffer B at 23 min with a flow rate of 50 μL/min, where buffer A was 0.1% formic acid/H2O and buffer B was 0.1% formic acid/acetonitrile. All spectra were acquired in the mass range m/z 200-2000. Electrospray voltage was maintained at 4.0 kV and capillary temperature was set at 275° C.
The stock solution of modified amino carbazoles (125 μM, 20 μL) were incubated with 5 μL of serum (estimate<10 nM of serum oxidases) in sodium acetate buffer (0.1M, pH 5.0, 5 μL) at 37° C. for 30 min. The serum oxidase oxidation was quenched by DMSO (90 μL), followed detection of LC-MS/MS.
The amount of the oxidized product was determined according to the area under the peak by integration. The specific Cp activity unit was calculated by the formula: Peak area of oxidized product MS2 ion/serum volume (μL).
The addition of DMSO was to quench the serum enzyme activity. After centrifugation, the supernatant of the mixture was detected by LC-MS/MS.
The target in test [6] is T1, ceruloplasmin. The test can be described thus: Cp-depletion test (serum filtered to remove proteins larger than 100 kDa), LCMS. More on the design: Ceruloplasmin is made in the liver and then secreted into the blood; from tissue; host or cells: serum / plasma (normal adult, newborn; Cp-depleted serum by 100 kDa filtration as comparison). Particulars: Cp-depleted serum 5 μL, 30 min, 37° C. The procedure:
Normal adult serum and plasma were controls. After incubation, the DMSO quenched mixture were 100-folds diluted and detected by LCMS.
The Cp depletion serum was obtained by size selection method. Briefly, the centrifuge filter was applied in normal serum to eliminate those proteins larger than 100 kDa, including Cp (˜130 kDa).

`COc1cc(-c2ccc(N)c(OC)c2)ccc1N.Cl.Cl` [o-dianisidine dihydrochloride (ODD), o-dianisidine dihydrochloride]: the “correlation of absorbance and serum volume” value in test [1] is “poor”.
Turning to `NCCc1c[nH]c2ccc(O)cc12` [ACK-1000, Serotonin (or 5-Hydroxytryptamine)], the “products generated when reacting with serum oxidases” value in test [2] is given as “specific oxidized products”.
With `CCCCn1c2ccccc2c2cc(N)ccc21` [ACK-1001, 9-buyl-9H-carbazol-3-amine], the “products generated when reacting with serum oxidases” value in test [2] is given as “specific oxidized products”.
On to `Nc1ccc(N)cc1` [p-phenylenediamine (PPD), p-phenylenediamine], for which, in test [1], the “correlation of absorbance and serum volume” value is recorded as “poor”.
Turning to `CCn1c2ccccc2c2cc(N)ccc21` [ACK-1006, 9-ethyl-9H-carbazol-3-amine], the “LCMS signal of oxidized substrate in new born plasma” value in test [3] (new born plasma 5 μL, 30 min, 37° C.) was > 10^5. Also, the “signal of oxidative substrate in CP-depletion plasma compared with newborn plasma” value in test [3] is “significantly lower”. Also, the “oxidation of substrate by recombinant ceruloplasmin” value in test [4] is listed as “could be oxidized by recombinant ceruloplasmin”. In addition, the “signal intensity of m/z transition of the oxidized product” value in test [5] (after 1000-fold dilution, serum less than 5 μL) is reported as > 10^3. The “reaction time at which oxidized product reached highest amount” value in test [5] (time-dependent assay) amounted to 30 min. Further, the “oxidized product detected with Cp depleted serum” value in test [6] was “trace amount”.
